Like-named read-outs stand apart in the source and are kept apart here.
Key:
BSA = target: T1, BSA (Bos taurus, UniProt P02769); parameters: Intact protein LC/MS covalent labelling, fragments in pools of five, 200 uM each, 4 °C; conditions: 24 h, 4 °C, pool of five; 200 µM; covalent
T1 construct: gene ALB

NUDT7 = target: T2, NUDT7 (Homo sapiens, UniProt P0C024); parameters: Intact protein LC/MS covalent labelling, fragments in pools of five, 200 uM each, 4 °C; conditions: 24 h, 4 °C, pool of five; 200 µM; covalent
T2 construct: residues 14-235, E. coli, pNIC28-Bsa4, N-terminal His6 tag removed by TEV, construct 26672 Da

OTUB2 (OTUB2A) = target: T3, OTUB2 (OTUB2A) (Homo sapiens, UniProt Q96DC9); parameters: Intact protein LC/MS covalent labelling, fragments in pools of five, 200 uM each, 4 °C; conditions: 24 h, 4 °C, pool of five; 200 µM; covalent
T3 construct: full length residues 1-234, E. coli BL21(DE3)-R3, His tag removed by TEV, construct 27312 Da
T3 sequence (Q96DC9 1-234): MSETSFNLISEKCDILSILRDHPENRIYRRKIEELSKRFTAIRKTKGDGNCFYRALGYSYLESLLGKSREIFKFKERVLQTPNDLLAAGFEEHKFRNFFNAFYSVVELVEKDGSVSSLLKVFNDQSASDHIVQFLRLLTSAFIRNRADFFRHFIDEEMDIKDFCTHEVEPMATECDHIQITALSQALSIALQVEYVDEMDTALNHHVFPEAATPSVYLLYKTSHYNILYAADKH

PCAF = target: T4, PCAF (Homo sapiens, UniProt Q92831); parameters: Intact protein LC/MS covalent labelling, fragments in pools of five, 200 uM each, 4 °C; conditions: 24 h, 4 °C, pool of five; 200 µM; covalent
T4 construct: gene KAT2B

in vitro [1] = experiment: in vitro; parameters: species or system CCD841, HEK293; conditions: human, hb2 cells, read-out: HB-2 Cells Viability (%)
in vitro [2] = experiment: in vitro; parameters: species or system HB2, HEK293; conditions: human, ccd841 cells
in vitro [3] = experiment: in vitro; parameters: species or system HB2, CCD841; conditions: human, hek293 cells

T1 sequence (P02769 whole entry, the tested form may be a part): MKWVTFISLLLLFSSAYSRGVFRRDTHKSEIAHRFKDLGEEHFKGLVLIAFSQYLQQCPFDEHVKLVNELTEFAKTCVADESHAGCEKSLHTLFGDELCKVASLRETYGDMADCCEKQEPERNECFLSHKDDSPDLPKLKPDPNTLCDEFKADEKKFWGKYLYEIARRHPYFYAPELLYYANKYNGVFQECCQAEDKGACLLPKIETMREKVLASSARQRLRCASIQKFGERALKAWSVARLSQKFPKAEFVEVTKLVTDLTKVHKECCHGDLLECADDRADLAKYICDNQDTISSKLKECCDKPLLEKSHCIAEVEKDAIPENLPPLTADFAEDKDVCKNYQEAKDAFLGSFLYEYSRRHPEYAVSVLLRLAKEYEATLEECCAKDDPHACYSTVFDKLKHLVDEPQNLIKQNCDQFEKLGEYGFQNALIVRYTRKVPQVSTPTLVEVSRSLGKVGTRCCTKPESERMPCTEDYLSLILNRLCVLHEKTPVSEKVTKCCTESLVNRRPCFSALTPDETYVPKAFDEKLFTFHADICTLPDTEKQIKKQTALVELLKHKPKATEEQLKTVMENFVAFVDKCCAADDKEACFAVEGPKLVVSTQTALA
T4 sequence (Q92831 whole entry, the tested form may be a part): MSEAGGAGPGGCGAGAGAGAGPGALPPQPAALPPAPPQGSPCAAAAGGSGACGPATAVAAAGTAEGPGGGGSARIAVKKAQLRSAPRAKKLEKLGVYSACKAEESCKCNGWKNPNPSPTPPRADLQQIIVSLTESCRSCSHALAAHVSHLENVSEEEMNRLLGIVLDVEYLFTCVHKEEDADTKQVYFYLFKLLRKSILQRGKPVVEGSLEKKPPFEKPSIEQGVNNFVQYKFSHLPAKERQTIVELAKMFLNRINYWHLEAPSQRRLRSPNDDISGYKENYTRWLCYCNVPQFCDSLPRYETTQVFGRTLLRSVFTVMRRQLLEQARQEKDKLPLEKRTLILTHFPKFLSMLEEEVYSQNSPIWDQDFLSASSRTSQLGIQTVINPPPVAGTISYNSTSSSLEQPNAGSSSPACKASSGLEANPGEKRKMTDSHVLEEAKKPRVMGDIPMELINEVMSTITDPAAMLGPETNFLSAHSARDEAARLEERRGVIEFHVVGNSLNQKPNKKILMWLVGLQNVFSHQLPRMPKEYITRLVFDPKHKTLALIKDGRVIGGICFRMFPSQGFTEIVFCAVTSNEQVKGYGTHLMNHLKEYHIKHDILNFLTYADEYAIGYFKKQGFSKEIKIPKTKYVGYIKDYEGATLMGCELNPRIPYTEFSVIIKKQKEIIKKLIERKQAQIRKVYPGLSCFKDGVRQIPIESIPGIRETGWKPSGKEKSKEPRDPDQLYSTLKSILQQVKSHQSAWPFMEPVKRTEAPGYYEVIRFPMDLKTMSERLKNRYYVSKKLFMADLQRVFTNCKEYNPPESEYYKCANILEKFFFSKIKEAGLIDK
T2 sequence (P0C024 14-235): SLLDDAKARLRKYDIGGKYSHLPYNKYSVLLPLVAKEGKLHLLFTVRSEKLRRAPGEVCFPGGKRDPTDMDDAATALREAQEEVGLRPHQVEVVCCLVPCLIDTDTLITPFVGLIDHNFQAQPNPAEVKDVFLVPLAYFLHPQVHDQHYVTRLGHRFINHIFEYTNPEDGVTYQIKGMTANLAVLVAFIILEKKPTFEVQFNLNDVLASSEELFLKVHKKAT

Structure (SMILES) | BSA (BSA) | NUDT7 (NUDT7) | OTUB2 (OTUB2 (OTUB2A)) | PCAF (PCAF) | viability at 48 h, 10 µM (in vitro [1]) [%] | viability at 48 h, 10 µM (in vitro [2]) [%] | viability at 48 h, 10 µM (in vitro [3]) [%]
N#Cc1ccc(NC(=O)CCl)cc1 [PCM-0102875] | 0 | 0.14 | 0.08 | 0 | 36.6 | 46 | 4.3
C=CC(=O)N1CCC(c2nc(C(F)(F)F)cs2)CC1 [PCM-0102525] | 0 | 0 | 0 | 0 | 95.8 | 128 | 96.6
C=CC(=O)Nc1ccc(F)c(F)c1 [PCM-0102385] | 0 | 0 | 0 | 0 | 104 | 112 | 66.1
O=C(CCl)Nc1cc([N+](=O)[O-])ccc1F [PCM-0102544] | 0 | 0 | 0.31 | 0 | 1.6 | 2.5 | 1.8
O=C(CCl)Nc1ccc2c(c1)OCCCO2 [PCM-0102409] | 0 | 0.1 | 0.23 | 0 | 29.6 | 51.7 | 6.9
C=CC(=O)Nc1ccc2c(c1)OCO2 [PCM-0102347] | 0 | 0 | 0 | 0 | 109 | 106 | 79.7
C=CC(=O)NC(c1cnn(C)c1)C(F)(F)F (stereo not drawn) [PCM-0103073] | 0 | 0 | 0 | 0 | 99.5 | 107 | 94.4
O=C(CCl)Nc1nccs1 [PCM-0102242] | 0.17 | 0 | 0 | 0 | 88.3 | 79.3 | 70.1
C=CC(=O)Nc1cc(N)ccc1F [PCM-0102533] | 0 | 0 | 0 | 0 | 108 | 113 | 75.6
COC(=O)C1(NC(=O)CCl)CCC(C)CC1 (stereo not drawn) [PCM-0102827] | 0 | 0 | 0 | 0 | 102 | 96.8 | 93.6
CN(CC(F)(F)F)C(=O)CCl [PCM-0102674] | 0 | 0.11 | 0 | 0 | 101 | 105 | 101
O=C(CCl)Nc1ccccc1N1CCCCC1 [PCM-0102860] | 0 | 0 | 0 | 0 | 111 | 109 | 97.5
CCN(C(=O)CCl)C1=CCCCC1 [PCM-0103084] | 0.19 | 0 | 0 | 0 | 106 | 97.8 | 120
CC(c1ccccc1)N1CCN(C(=O)CCl)CC1.Cl (stereo not drawn) [PCM-0102710] | 0 | 0 | 0.12 | 0 | 36.7 | 72.5 | 41.3
C=CC(=O)N1CCCN(Cc2cn3cc(Cl)ccc3n2)CC1 [PCM-0102565] | 0 | 0.18 | 0 | 0 | 106 | 104 | 105

Source: paper PMC6556873, “Rapid Covalent-Probe Discovery by Electrophile-Fragment Screening” (Journal of the American Chemical Society, 2019)
